# Results: patent US20070026090A1, “Treatment and prevention of inflammatory disease and mitochondrial dysfunction with high dose selenium” (priority 2003, published 2007)
# Entries after “also recorded” stand apart in the source; their conditions may differ.
# Tests used:
# [1] = test system: Electron Transport Chain (complex 1); assay: Oxygen consumption of fresh colon tissue with rotenone; settings: healthy rat colon tissue; 20 μg/ml rotenone (FIG. 4)
# Method: Mitochondrial respiration activity in colon tissue: Mitochondrial respiration was measured by direct assessment of oxygen consumption of the tissue. Briefly, colons were removed, chilled on ice, and washed extensively with cold PBS. Colon tissue samples (5-10 mm in width, 100 mg) were incubated at ambient temperature in PBS supplemented with 5 mM glucose. Oxygen consumption was measured polarographically using a computerized Clark-type oxygen electrode. The addition of the Electron Transport Chain (complex 1) inhibitor rotenone was used to determine whether the majority of oxygen consumption measured in the colon samples was mitochondrial respiration-dependent.
# [2] = mice, at 60 and 90 days; as selenocysteine; cited from earlier work
# AOM-induced colon cancer = settings: up to 5.4 ppm in water; cited from earlier work
# [3] = test system: glutathione peroxidase (GPx); assay: GPx activity in macrophage cell extract; format: cell-based, murine; settings: 24 h; range 0.5-30 μM (FIG. 8B)
# Method: (§1) Cell culture: Murine J774.2 macrophages (kindly provided by Prof. Dov Zipori from the Weizmann Institute of Science) were grown in RPMI medium supplemented with 10% (w/v) fetal calf serum, penicillin (100 U/ml), streptomycin (100 μg/ml) and 1× glutamine at 37° C. in a humidified atmosphere consisting of 95% air and 5% CO2. Experiments were performed on cells at 60% confluence.
# GPx activity: GPx activity was determined by following the rate of NADPH oxidation at 340 nm in the presence of the substrates: 3 mM glutathione (GSH), 1.2 U glutathione reductase (GR) and 1.5% H2O2, using a microfluorometer plate reader (GENios, Tecan, Austria). The reaction contained 500 μl Tris reaction buffer (100 mM Tris Hcl, 300 mM Kcl, 5 mM EDTA, 1 mM NaN3, pH 7.0), substrates and 100 μl cell extract. Macrophages were treated with selenium for 24 h. Wells were washed twice with PBS, cells permeabilized, and scraped using 200 μl 0.2% Triton X-100. The reaction was recorded every minute for 25 minutes. Slopes were calculated and the results were adjusted according to the protein amount calculated with the Bradford reagent.
# [4] = Selenium incorporation into colon tissue (ICP-AES); format: in vivo, rat
# Method: Measurement of selenium incorporation into colon tissue: inductively coupled plasma (ICP) method: Colon tissue samples were prepared for analysis of selenium content by microwave-assisted digestion using an MLS 1200 mega microwave digestion unit [Milestone Sorisole (BG), Italy]. At the conclusion of the digestion period the vessels were allowed to cool down to room temperature and were uncapped. Liquid residues were taken up in water, transferred into 25-ml calibrated flasks and equilibrated to 25 ml volume with water. Analyses were conducted on portions of these solutions, versus multi-element selenium standards from Merck (Merck and Co, EMBD Biosciences, San Diego Calif.) in the same solvent. Selenium (Se) was determined by ICP-atomic emission spectrometry (AES) at 196.090 nm. An ICP-AES system, model “Spectroflame Modula E” from Spectro, Kleve, Germany was used with a cross-flow nebulizer. The power level was 1.2 kW, coolant flow 15 l/min, auxiliary flow 0.5 l/min and nebulizer flow 0.5 l/min. Observation height was 10 mm above the coil.
# [5] = mice and rats; up to 0.8 mg/kg body weight selenium; cited from earlier work
# MnSOD = MnSOD transcription and expression (RTPCR, Western blot); format: cell-based, murine; settings: LPS + INFγ activated; 24 hours; range 0.5-5 μM (FIG. 11)
# Method: as §1
# (§2) Western blots (Sp1, MnSOD, UCP2): Cells were grown in six-well tissue culture plates, treated with selenium for 72 h and activated with LPS and IFN-γ for 24 h. The wells were washed with PBS, scraped and centrifuged
# (5 min. 2000 RPM), and lysed by addition of boiling hot lysis buffer (1% SDS, 1 mM sodium ortho-vanadate, 10 mM Tris pH 7.4) to the pellets. Protein content was measured (BIO RAD protein assay kit) and equalized. Sample buffer (containg SDS) was added and the samples were boiled. The samples were subjected to SDS-PAGE followed by western blot analysis. Separated proteins were transferred electrophoretically from the gel to a nitrocellulose membrane (Amersham International plc, Buckinghamshire, ENGLAND). The membrane was blocked in TBS (0.15 M NaCl/10 mM Tris/HCl, pH7.4) containing 5% (v/v) skimmed milk (Blotto), then incubated over night with primary antibodies at RT (diluted 1/2000 in blotto). After being washed six times in TBST [TBS containing 0.05% (v/v) Tween 20], the membrane was incubated for 2 h at room temperature with secondary antibody (diluted 1/5000 in blotto). Immunoreactive bands were detected with ECL western blotting detection reagents (Amersham Pharmacia Biotech, Buckingammshire England) and developed on film (Fuji super RX, Dusseldorf, Germany). […]
# Right (antisense) 5′[…]-3′ (SEQ ID NO: 6) corresponding to nucleotides 622 to 640 of mouse mRNA region (GenBank Accession No. NM 013671). […] Actual PCR product was approximately 570 bp, measured on 1.25% agarose gel in TAE containing ethidium bromide.
# (§3) PCR was performed with 28 cycles (25 cycles for GAPDH) of 30 seconds at 96° C., 30 seconds at 58° C. and 1 min at 72° C. RTPCR products were analyzed on 1.3% (w/v) agarose gels.
# UCP2 = UCP2 transcription and expression (RTPCR, Western blot); format: cell-based, murine
# Method: as §1, §2
# (5 min. 2000 RPM), and lysed by addition of boiling hot lysis buffer (1% SDS, 1 mM sodium ortho-vanadate, 10 mM Tris pH 7.4) to the pellets. Protein content was measured (BIO RAD protein assay kit) and equalized. Sample buffer (containg SDS) was added and the samples were boiled. The samples were subjected to SDS-PAGE followed by western blot analysis. Separated proteins were transferred electrophoretically from the gel to a nitrocellulose membrane (Amersham International plc, Buckinghamshire, ENGLAND). The membrane was blocked in TBS (0.15 M NaCl/10 mM Tris/HCl, pH7.4) containing 5% (v/v) skimmed milk (Blotto), then incubated over night with primary antibodies at RT (diluted 1/2000 in blotto). After being washed six times in TBST [TBS containing 0.05% (v/v) Tween 20], the membrane was incubated for 2 h at room temperature with secondary antibody (diluted 1/5000 in blotto). Immunoreactive bands were detected with ECL western blotting detection reagents (Amersham Pharmacia Biotech, Buckingammshire England) and developed on film (Fuji super RX, Dusseldorf, Germany). Primary antibodies for Sp1 and MnSOD were from BD Transduction Laboratories (Becton Dickenson and Co., San Jose, Calif. USA) and for UCP2 from Alpha Diagnostics LTD (Warszaw, Poland). Secondary antibodies were from Jackson ImmunoResearch (Jackson Labs, Bar Harbor, Maine, USA).
# Reverse transcriptase-PCR (RTPCR): Total RNA was prepared and isolated by the Tri-Reagent method according to the manufacturer's protocol (Sigma, St. Louis Mo., USA). Total RNA (1 μg) was converted into cDNA using Reverse-iT first strand synthesis kit (Abgene, UK). Amplification of MnSOD and UCP2 sequences was performed by incubating 10 ng equivalents of DNA with the following oligonucleotide primers:
# Left (sense), 5′-[…]-3′ (SEQ ID NO:7) corresponding to nucleotides 372 to 392 of mouse mRNA (GenBank Accession No. NM 011671).
# Right (antisense) 5′[…]-3′ (SEQ ID NO: 8) corresponding to nucleotides 826 to 846 of mouse mRNA (GenBank Accession No. NM 011671). The expected PCR product was 474 bp. Actual PCR product was approximately 474 bp, measured on 1.25% agarose gel in TAE containing ethidium bromide.
# as §3
# [6] = test system: myeloperoxidase (MPO) activity; assay: Tissue inflammation: myeloperoxidase activity in colon tissue; format: in vivo, rat; settings: 24 h after TNBS; 16 ppm sodium selenite in drinking water, three weeks (FIG. 3 column D)
# Method: Tissue inflammation-Myeloperoxidase activity: Colonic tissue samples (approximately 100-120 mg) were collected 4 cm proximal to the anus. Each tissue sample was homogenized in a solution containing 0.5% hexa-decyl-trimethyl-ammonium bromide (HTAB) (Sigma-Aldrich Corp, St. Louis, Mo.) buffer (0.5% HTAB in 50 mM phosphate buffer, pH 6.0). Tissue samples were minced in a test tube containing 1 ml of HTAB buffer on ice and homogenized with a Polytron tissue homogenizer (Brinkmann Instruments, Inc, Westbury N.Y., USA). The pooled homogenates and washes were sonicated in water for 20 seconds. After three cycles of freeze-thawing, the sonicated samples were centrifuged in cold for 15 min. at 40,000×g. Myeloperoxidase activity (MPO) was assayed in the supernatant as described by Krawisz (Krawisz et al., 1984) after addition of O-dianizidine-HCl (Sigma-Aldrich Corp, St Louis, Mo.) and 0.15% (v/v) H2O2 as a substrate for the MPO. The rate of change in absorbance was measured spectrophotometrically at 460 nm, and is expressed as the amount of enzyme necessary to produce a change in absorbance of 1.0 unit per minute (1 unit) per gram wet weight tissue.
# [7] = Cell viability (PI exclusion, flow cytometry); format: cell-based, murine; settings: mouse, 10 μM during or after activation (FIGS. 14A, 14B); read-out: decrease in cell viability, activated and inactivated cells
# Method: Experiments were performed on cells at 60% confluence.
# Determination of cell viability: Cell-membrane integrity was detected by flow cytometer (FACSort, Becton Dickenson and Co., San Jose, Calif. USA) as a measurement of cell viability. For this assay, the nonpermeant DNA-intercalating dye propidium iodide (PI), which is excluded by viable cells, was used. Fluorescence settings were excitation at 488 nm and emission at 575 nm. Data were collected from at least 10,000 cells.
smiles,measurement,setting,value
C=C(C)[C@H]1Cc2c(ccc3c2O[C@@H]2COc4cc(OC)c(OC)cc4[C@@H]2C3=O)O1 [rotenone],respiration (O2 consumption) of colon tissue,[1],strongly inhibited; also recorded: significantly reduced
N[C@@H](C[SeH])C(=O)O [selenocysteine],dietary supplementation at which toxicity was observed,[2],greater than 10 mg selenium per kg body weight per day
C[Se]CC[C@H](N)C(=O)O [selenomethionine],anti-cancer treatment effect,AOM-induced colon cancer,ineffective
O=[Se](O)O [sodium selenite],concentration of maximum stimulation of GPx activity,[3],0.5 µM
same,increase in colon tissue selenium levels compared with healthy rats,"[4]; colitis-induced rats, 24 h after TNBS, 16 ppm in water, three weeks (FIG. 1 C and D)",greater
same,colon tissue selenium vs untreated controls,"[4]; healthy and colitis rats (columns B and D vs A and C), 16 ppm in drinking water, three weeks",enhanced levels
same,adverse effects of long term supplementation,[5],no observable adverse effects
same,"lowest concentration effective in reducing MnSOD expression, activated macrophages",MnSOD,1 µM
same,lowest concentration giving a significant decrease in UCP2 transcripts,UCP2; 24 and 72 hours (FIG. 10A),5 µM
same,reduction in detectable UCP2 protein,UCP2; 24 hours at 30 μM (FIG. 10B),greater than 50%
same,"lowest concentration effective in reducing UCP2 expression, activated macrophages","UCP2; LPS + INFγ activated, 24 hours, range 0.5-5 μM (FIG. 11)",1 µM
same,protection against TNBS-induced inflammation (MPO activity),[6],> 80%
same,cytotoxicity at 10 μM,[7],≤ 60%
